Reference: patent publication US20220096449A1, “METHOD OF TREATMENT WITH TRADIPITANT” (Vanda Pharmaceuticals Inc., priority 2018, published 2022)
Where “and” joins values, the source holds several entries; their conditions need not be identical. Equal entries are not always repeated. Marks after values point to notes of the source that are not given here.

Columns and labels:
NK-3 receptor = biological target: T1, NK-3 receptor (Homo sapiens, UniProt P29371); assay: NK-3 receptor inhibition; type: binding
T1 sequence (P29371 1-465): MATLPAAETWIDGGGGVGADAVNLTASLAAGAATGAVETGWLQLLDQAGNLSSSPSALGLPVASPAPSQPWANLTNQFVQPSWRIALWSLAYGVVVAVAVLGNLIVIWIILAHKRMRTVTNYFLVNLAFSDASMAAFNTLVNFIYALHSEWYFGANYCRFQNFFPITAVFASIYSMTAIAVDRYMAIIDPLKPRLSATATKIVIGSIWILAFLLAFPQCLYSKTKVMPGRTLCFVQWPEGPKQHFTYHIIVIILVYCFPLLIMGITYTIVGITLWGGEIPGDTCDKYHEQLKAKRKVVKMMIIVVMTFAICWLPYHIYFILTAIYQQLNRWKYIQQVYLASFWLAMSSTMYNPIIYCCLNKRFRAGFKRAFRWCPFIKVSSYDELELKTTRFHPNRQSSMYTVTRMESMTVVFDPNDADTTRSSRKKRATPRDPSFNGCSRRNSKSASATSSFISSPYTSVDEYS

brain NK-1 receptors = assay: Brain NK-1 receptor occupancy with tracer GR205171; type: in vivo; conditions: p.o., tracer GR205171 iv
Description: A tracer NK-1 antagonist compound (GR205171) is used to evaluate the ability of other NK-1 antagonists to occupy the brain NK-1 receptors. In these studies, the test compounds are administered orally and the tracer compound is administered intravenously afterward. The occupancy of the NK-1 receptors is evaluated by quantitating the amount of the tracer compound bound to the brain NK-1 receptors after increasing doses of the test compounds.

[1] = system: patients with idiopathic and diabetic gastroparesis; assay: Phase II study VLY-686-2301, double blind randomized portion (Example 5); type: in vivo, human; conditions: for CGI-S, change from baseline / DD-% Nausea Free Days, change from baseline / DD-Nausea (Daily Diary Nausea Score, 0-5), change from baseline / GCSI, change from baseline / PAGI-SYM, change from baseline / PGI-C: 4 weeks; for Daily Diary Nausea Weekly Average, Effect size estimate: tradipitant treatment arm
Source text: In a phase II study of tradipitant in patients with idiopathic and diabetic gastroparesis, participants enter a 4 week screening period prior to treatment with tradipitant, during which they answer a daily symptom questionnaire rating their nausea severity on a scale of 0 to 5, in which 0 represents no nausea, 1 represents very mild nausea, 2 represents mild nausea, 3 represents moderate nausea, 4 represents severe nausea, and 5 represents very severe nausea. After the 4 week screening period, 141 gastroparesis patients in an Intent to Treat (ITT) population enter the 4 week double blind randomized portion of the study, in which they receive either tradipitant 85 mg bid, or placebo. Several symptom severity scales are used to assess gastroparesis symptoms, including the […] (GCSI), Patients Assessment of Upper Gastrointestinal Disorders-Symptoms (PAGI-SYM), and Patient Global Impression of Change (PGI-C), as well as a Clinician Global Impression of Severity (CGI-S). After 4 weeks of blinded study drug treatment, patients have the opportunity to enter an additional 8 week open label extension, during which each subject receives tradipitant 85 mg bid.
Abbreviations used in Table 6 include: Daily Diary Nausea Score, 0-5 (DD-Nausea); Daily Diary Nausea Free Days, percent 0-100 (DD-% Nausea Free Days); Intent to Treat (ITT); Gastroparesis Cardinal Symptom Index (GCSI); Patient Assessment of Gastrointestinal Disorders-Symptoms (PAGI-SYM); Clinician Global Impression of Severity (CGI-S); Patient Global Impression of Change (PGI-C). For DD-Nausea, DD-% Nausea Free Days, GCSI, PAGI-SYM and CGI-S, the values shown are changes from baseline.

[2] = system: apomorphine-induced emesis; assay: Apomorphine emetic challenge in beagle dogs; type: in vivo, beagle dog; conditions: for Total No. Emetic Episodes: apomorphine 0.1 mg/kg iv 2 hours later, 5 dogs
Description: Over the five (5) weeks of the study, each animal receives each of the treatments, but only one per week. The purpose of this study is to determine if tradipitant suppresses apomorphine-induced emesis.
All animals are dosed over a period of five (5) weeks, with each dog receiving one of five different treatments on each day of dosing.
All dogs are fasted overnight prior to each treatment day and then fed approximately one (1) hour after oral dosing (approximately one (1) hour prior to administration of apomorphine). Individual doses are adjusted weekly for changes in body weight.
The dose regimen consists of a 5×5 Latin square design, in which each subject receives 1 dose or dose combination per week (6 day washout) as shown in Table 3 below.

NK-2 receptor = biological target: T2, NK-2 receptor (Homo sapiens, UniProt P21452); assay: NK-2 receptor inhibition; type: binding
T2 sequence (P21452 1-398): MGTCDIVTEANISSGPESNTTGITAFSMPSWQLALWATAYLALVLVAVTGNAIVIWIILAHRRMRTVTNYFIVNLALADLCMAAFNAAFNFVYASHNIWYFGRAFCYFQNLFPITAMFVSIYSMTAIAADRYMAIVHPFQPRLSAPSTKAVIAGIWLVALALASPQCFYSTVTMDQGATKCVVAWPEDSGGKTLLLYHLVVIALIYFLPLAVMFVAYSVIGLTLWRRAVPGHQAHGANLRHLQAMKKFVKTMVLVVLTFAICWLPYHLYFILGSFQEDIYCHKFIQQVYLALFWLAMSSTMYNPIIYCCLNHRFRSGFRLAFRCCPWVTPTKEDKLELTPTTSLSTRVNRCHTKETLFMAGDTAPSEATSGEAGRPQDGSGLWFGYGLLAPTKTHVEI

[3] = Plasma concentration of tradipitant 2 hours post-dose in dogs; type: in vivo, beagle dog; conditions: individual dogs
Description: All animals are dosed over a period of five (5) weeks, with each dog receiving one of five different treatments on each day of dosing. […] In cases where apomorphine is administered alone, without prior treatment with tradipitant or aprepitant, apomorphine is given at approximately the same time as when given in combination with tradipitant or aprepitant.

[4] = ITT Population, 85 mg bid, n = 73
[5] = Vomiting Population, 85 mg bid, n = 58

Question: For `O=C(c1ccccc1Cl)c1cccnc1-c1nnn(Cc2cc(C(F)(F)F)cc(C(F)(F)F)c2)c1-c1ccncc1` [Tradipitant, {2-[1-(3,5-bistrifluoromethylbenzyl)-5-pyridin-4-yl-1H-[1,2,3]triazol-4-yl]-pyridin-3-yl}-(2-chlorophenyl)-methanone], which “inhibition at NK-3 receptor” value (NK-3 receptor) is on record?
Answer: The value was “no significant inhibition”.

Question: What about the “ED50, occupancy of brain NK-1 receptors” value (brain NK-1 receptors) of the same compound?
Answer: Its value is 0.04 mg/kg.

Question: What about the tolerability ([1]; 85 mg bid, confirms prior studies' findings) of the same compound?
Answer: Its tolerability is “well tolerated”.

Question: And the “CGI-S, change from baseline” value [1, 4]?
Answer: Its value is −1.13.

Question: And the “DD-% Nausea Free Days, change from baseline” value [1, 4]?
Answer: Its value is 28.8%.

Question: And the “DD-Nausea (Daily Diary Nausea Score, 0-5), change from baseline” value (shortened to “DD-Nausea … change from baseline”) [1, 4]?
Answer: Its value is −1.25.

Question: And the “GCSI, change from baseline” value [1, 4]?
Answer: The value was −0.93.

Question: And the “PAGI-SYM, change from baseline” value [1, 4]?
Answer: The value was −0.93.

Question: And the PGI-C [1, 4]?
Answer: The PGI-C was 2.66.

Question: What about the “DD-Nausea … change from baseline” value ([1]; ITT Population, 85 mg bid, n = 73, listed as tradipitant) of the same compound?
Answer: Its value is −1.2.

Question: And the “CGI-S, change from baseline” value [1, 5]?
Answer: Its value is −1.24.

Question: What about the “DD-% Nausea Free Days, change from baseline” value [1, 5] of the same compound?
Answer: Its value is 32.3%.

Question: What about the “DD-Nausea … change from baseline” value [1, 5] of the same compound?
Answer: Its value is −1.43.

Question: And the “GCSI, change from baseline” value [1, 5]?
Answer: Its value is −1.10.

Question: What about the “PAGI-SYM, change from baseline” value [1, 5] of the same compound?
Answer: The value was −1.06.

Question: What about the PGI-C [1, 5] of the same compound?
Answer: Its PGI-C is 2.52.

Question: And the “DD-Nausea … change from baseline” value ([1]; Vomiting Population, 85 mg bid, n = 58, listed as tradipitant)?
Answer: Its value is −1.4.

Question: What about the “Daily Diary Nausea Weekly Average, Effect size estimate” value (“Daily Diary Nausea Weekly Average” below) ([1]; Week 1 vs Week 2) of the same compound?
Answer: The value was 0.314.

Question: And the “Daily Diary Nausea Weekly Average” value ([1]; Week 1 vs Week 3)?
Answer: The value was 0.5556.

Question: What about the “Daily Diary Nausea Weekly Average” value ([1]; Week 1 vs Week 4) of the same compound?
Answer: Its value is 0.592.

Question: And the “Daily Diary Nausea Weekly Average” value ([1]; Week 2 vs Week 3)?
Answer: The value was 0.2416.

Question: And the “Daily Diary Nausea Weekly Average” value ([1]; Week 2 vs Week 4)?
Answer: The value was 0.278.

Question: What about the “Daily Diary Nausea Weekly Average” value ([1]; Week 3 vs Week 4) of the same compound?
Answer: Its value is 0.03647.

Question: What about the “Total No. Emetic Episodes” value ([2]; 0.3 mg/kg oral) of the same compound?
Answer: The value was 1**.

Question: What about the “Total No. Emetic Episodes” value ([2]; 1.0 mg/kg oral) of the same compound?
Answer: The value was 1**.

Question: And the “Total No. Emetic Episodes” value ([2]; 3.0 mg/kg oral)?
Answer: The value was 1**.

Question: What about the “effect against apomorphine-induced emesis” value ([2]; each dose tested (0.3, 1.0, and 3.0 mg/kg)) of the same compound?
Answer: The value was “effective”.

Question: And the “inhibition at NK-2 receptor” value (NK-2 receptor)?
Answer: Its value is “no significant inhibition”.

Question: And the “Concentration of tradipitant in plasma” value ([3]; 0.3 mg/kg oral)?
Answer: The value was 0.09093 µg/mL and 0.08338 µg/mL and 0.02259 µg/mL and 0.0512 µg/mL and 0.04133 µg/mL.

Question: What about the “Concentration of tradipitant in plasma” value ([3]; 1.0 mg/kg oral) of the same compound?
Answer: The value was 0.24084 µg/mL and 0.10097 µg/mL and 0.06156 µg/mL and 0.17558 µg/mL and 0.08649 µg/mL.

Question: What about the “Concentration of tradipitant in plasma” value ([3]; 3.0 mg/kg oral) of the same compound?
Answer: Its value is 0.3162 µg/mL and 0.68291 µg/mL and 0.11979 µg/mL and 0.12273 µg/mL and 0.25658 µg/mL.
